US10287301B2 (Achillion Pharmaceuticals, Inc., priority 2015, dated 2019)
pIC50: −log10 of the molar value.

target: Human Factor D (Homo sapiens (Human), UniProt P00746); assay: Human Factor D Assay; assay type: biochemical; settings: not given
Summary of the method: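 Serum-purified human Factor D (80 nM final) was preincubated with test compound at various concentrations for 5 min at room temperature in 50 mM Tris, 1M NaCl, pH 7.5. Z-L-Lys-SBzl and DTNB were then added at 100 μM each. IC50 came from nonlinear regression of reaction rates versus compound concentration.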

Sequence of Human Factor D (P00746 26-253): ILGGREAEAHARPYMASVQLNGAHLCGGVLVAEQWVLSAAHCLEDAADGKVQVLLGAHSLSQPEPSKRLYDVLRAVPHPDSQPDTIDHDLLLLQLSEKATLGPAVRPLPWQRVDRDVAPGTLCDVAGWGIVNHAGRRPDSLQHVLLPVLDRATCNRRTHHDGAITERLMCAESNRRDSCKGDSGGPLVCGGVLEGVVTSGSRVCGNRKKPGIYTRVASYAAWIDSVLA

Row | SMILES | pIC50
1 | Cc1ncc(-c2ccc3c(c2)c(C(C)O)nn3CC(=O)N2C[C@H](F)C[C@H]2C(=O)Nc2cccc(Br)n2)cn1 (stereo partly drawn) [Compound 360, (2S,4R)-N-(6-bromopyridin-2-yl)-4-fluoro-1-(2-(3-(1-hydroxyethyl)-5-(2-methylpyrimidin-5-yl)-1H-indazol-1-yl)acetyl)pyrrolidine-2-carboxamide] | 5.00 to 6.00

same assay, conditions: Human Factor D 80 nM, substrate Z-L-Lys-SBzl; read-out: IC50

Row | SMILES | pIC50
2 | CC(=O)c1cn(CC(=O)N2C[C@H](F)C[C@H]2C(=O)Nc2cccc(Br)n2)c2ccc(-c3cncnc3)cc12 [Compound 14, (2S,4R)-1-(2-(3-acetyl-5-(pyrimidin-5-yl)-1H-indol-1-yl)acetyl)-N-(6-bromopyridin-2-yl)-4-fluoropyrrolidine-2-carboxamide] | > 6.00
3 | Cc1cc(NC(=O)[C@@H]2C[C@@H](F)CN2C(=O)Cn2nc(C(N)=O)c3cc(-c4ccnnc4)ccc32)n2nc(C(F)(F)F)nc2n1 [Compound 113, 1-(2-((2S,4R)-4-fluoro-2-(5-methyl-2-(trifluoromethyl)-[1,2,4]triazolo[1,5-a]pyrimidin-7-ylcarbamoyl)pyrrolidin-1-yl)-2-oxoethyl)-5-(pyridazin-4-yl)-1H-indazole-3-carboxamide] | < 5.00
4 | CC(=O)c1cn(CC(=O)N2C[C@H](F)C[C@H]2C(=O)Nc2cccc(-c3ccccc3Cl)c2F)c2ccc(-c3ccc(C)nc3)cc12 [Compound 151, (2S,4R)-1-(2-(3-acetyl-5-(6-methylpyridin-3-yl)-1H-indol-1-yl)acetyl)-N-(2′-chloro-2-fluorobiphenyl-3-yl)-4-fluoropyrrolidine-2-carboxamide] | > 6.00
5 | CC(=O)c1cn(CC(=O)N2C[C@H](F)C[C@H]2C(=O)Nc2ccnc(=O)n2C)c2ccc(-c3ccnnc3)cc12 [Compound 173, (2S,4R)-1-(2-(3-acetyl-5-(pyridazin-4-yl)-1H-indol-1-yl)acetyl)-4-fluoro-N-(3-methyl-2-oxo-2,3-dihydropyrimidin-4-yl)pyrrolidine-2-carboxamide] | < 5.00
6 | CC(=O)c1cn(CC(=O)N2C[C@H](F)C[C@H]2C(=O)Nc2cc(C)nc3nc(C(F)(F)F)nn23)c2ccc(-c3ccnnc3)cc12 [Compound 97, (2S,4R)-1-(2-(3-acetyl-5-(pyridazin-4-yl)-1H-indol-1-yl)acetyl)-4-fluoro-N-(5-methyl-2-(trifluoromethyl)-[1,2,4]triazolo[1,5-a]pyrimidin-7-yl)pyrrolidine-2-carboxamide] | < 5.00
7 | CC1(C)Cc2ccc(NC(=O)[C@@H]3C[C@@H](F)CN3C(=O)Cn3nc(C(N)=O)c4cc(-c5ccnnc5)ccc43)cc2O1 [Compound 76, 1-(2-((2S,4R)-2-(2,2-dimethyl-2,3-dihydrobenzofuran-6-ylcarbamoyl)-4-fluoropyrrolidin-1-yl)-2-oxoethyl)-5-(pyridazin-4-yl)-1H-indazole-3-carboxamide] | > 6.00
8 | CC(=O)c1cn(CC(=O)N2C[C@H](F)C[C@H]2C(=O)Nc2ccccc2-c2nncn2C)c2ccc(-c3ccnnc3)cc12 [Compound 181, (2S,4R)-1-(2-(3-acetyl-5-(pyridazin-4-yl)-1H-indol-1-yl)acetyl)-4-fluoro-N-(2-(4-methyl-4H-1,2,4-triazol-3-yl)phenyl) pyrrolidine-2-carboxamide] | < 5.00
9 | NC(=O)c1nn(CC(=O)N2C[C@H](F)C[C@H]2C(=O)Nc2cccc(-c3ccccc3Cl)c2F)c2ccc(-c3cncnc3)cc12 [Compound 2] | > 6.00
10 | CC(=O)c1nn(CC(=O)N2C[C@H](F)C[C@H]2C(=O)Nc2cccc(-c3ccccc3Cl)c2F)c2ccc(-c3cnc(C)nc3)cc12 [Compound 163, (2S,4R)-1-(2-(3-acetyl-5-(2-methylpyrimidin-5-yl)-1H-indazol-1-yl)acetyl)-N-(2′-chloro-2-fluorobiphenyl-3-yl)-4-fluoropyrrolidine-2-carboxamide] | > 6.00
11 | CC(=O)c1cn(CC(=O)N2C[C@H](F)C[C@H]2C(=O)Nc2cccc(-c3ccccc3Cl)c2F)c2ccc(-c3cnc(C)nc3)cc12 [Compound 102, (2S,4R)-1-(2-(3-acetyl-5-(2-methylpyrimidin-5-yl)-1H-indol-1-yl)acetyl)-N-(2′-chloro-2-fluorobiphenyl-3-yl)-4-fluoropyrrolidine-2-carboxamide] | > 6.00

same assay, conditions: Human Factor D assay of Example 8; Table 2; read-out: IC50

Row | SMILES | pIC50
12 | CC(=O)c1cn(CC(=O)N2C[C@H](F)C[C@H]2C(=O)Nc2cccc(-c3ccncc3Cl)c2F)c2ccc(-c3cnc(C)nc3)cc12 [Compound 206, (2S,4R)-1-(2-(3-acetyl-5-(2-methylpyrimidin-5-yl)-1H-indol-1-yl)acetyl)-N-(3-(3-chloropyridin-4-yl)-2-fluorophenyl)-4-fluoropyrrolidine-2-carboxamide] | > 6.00
13 | CC(=O)c1nn(CC(=O)N2C[C@H](F)C[C@H]2C(=O)Nc2cncc(Br)n2)c2ccc(-c3ccc4nc(C)nn4c3)cc12 [Compound 325, (2S,4R)-1-(2-(3-acetyl-5-(2-methyl-[1,2,4]triazolo[1,5-a]pyridin-6-yl)-1H-indazol-1-yl)acetyl)-N-(6-bromopyrazin-2-yl)-4-fluoropyrrolidine-2-carboxamide] | > 6.00

same assay, conditions: Human Factor D, Table 3; read-out: IC50

Row | SMILES | pIC50
14 | CC(=O)c1nn(CC(=O)N2C[C@@H]3C[C@@H]3[C@H]2C(=O)Nc2nc(Br)ccc2C)c2ccc(-c3cnc(C)nc3)cc12 [Compound 605, (1S,2S,5R)-3-(2-(3-Acetyl-5-(2-methylpyrimidin-5-yl)-1H-indazol-1-yl)acetyl)-N-(6-bromo-3-methylpyridin-2-yl)-3-azabicyclo[3.1.0]hexane-2-carboxamide] | > 6.00
15 | CC(=O)c1nn(CC(=O)N2C[C@H](F)C[C@H]2C(=O)Nc2nc(Br)ccc2C(=O)O)c2ccc(-c3cnc(C)nc3)cc12 [Compound 615, 2-((2S,4R)-1-(2-(3-Acetyl-5-(2-methylpyrimidin-5-yl)-1H-indazol-1-yl)acetyl)-4-fluoropyrrolidine-2-carboxamido)-6-bromonicotinic acid] | > 6.00
16 | NC(=O)c1nn(CC(=O)N2C[C@H](F)C[C@H]2C(=O)Nc2cccc(Br)n2)cc1-c1cnn(C2CC2)c1 [Compound 726, 1-(2-((2S,4R)-2-((6-Bromopyridin-2-yl)carbamoyl)-4-fluoropyrrolidin-1-yl)-2-oxoethyl)-1′-cyclopropyl-1H,1′H-[4,4′-bipyrazole]-3-carboxamide] | < 5.00
17 | CC(=O)c1nn(CC(=O)N2C[C@H](F)C[C@H]2C(=O)Nc2cncc(C(F)(F)F)n2)c2ccc(-c3cnc(C)nc3)cc12 [Compound 581, (2S,4R)-1-(2-(3-Acetyl-5-(2-methylpyrimidin-5-yl)-1H-indazol-1-yl)acetyl)-4-fluoro-N-(6-(trifluoromethyl)pyrazin-2-yl)pyrrolidine-2-carboxamide] | > 6.00
18 | CC(=O)c1nn(CC(=O)N2[C@@H]3C[C@@H]3C[C@H]2C(=O)Nc2cccc(Br)n2)c2ccc(-c3cnc4cc(C5CC5)nn4c3)cc12 [Compound 673, (1R,3S,5R)-2-(2-(3-Acetyl-5-(2-cyclopropylpyrazolo[1,5-a]pyrimidin-6-yl)-1H-indazol-1-yl)acetyl)-N-(6-bromopyridin-2-yl)-2-azabicyclo[3.1.0]hexane-3-carboxamide] | > 6.00
19 | CC(=O)c1cn(CCN2C[C@H](F)C[C@H]2C(=O)Nc2cccc(OC(F)(F)F)c2F)c2ccc(-c3cnc4cc(C)nn4c3)cc12 [Compound 701, (2S,4R)-1-(2-(3-Acetyl-5-(2-methylpyrazolo[1,5-a]pyrimidin-6-yl)-1H-indol-1-yl)ethyl)-4-fluoro-N-(2-fluoro-3-(trifluoromethoxy)phenyl)pyrrolidine-2-carboxamide] | < 5.00
20 | CC(=O)c1nn(CC(=O)N2C(C(=O)Nc3cccc(Br)n3)C[C@]3(CN(C)C)C[C@H]23)c2ccc(-c3cnc(C)nc3)cc12 (stereo in doubt) [Compound 578, (1S,3S,5S)-2-(2-(3-acetyl-5-(2-methylpyrimidin-5-yl)-1H-indazol-1-yl)acetyl)-N-(6-bromopyridin-2-yl)-5-((dimethylamino)methyl)-2-azabicyclo[3.1.0]hexane-3-carboxamide] | > 6.00

same assay, conditions: Table 3; Human Factor D 80 nM, substrate Z-L-Lys-SBzl; read-out: IC50 (Stars)

Row | SMILES | pIC50
21 | CC(=O)c1nn(CC(=O)N2[C@@H]3C[C@@H]3C[C@H]2C(=O)NC/C(F)=C(/C)c2ccccc2Cl)c2ccc(-c3cnc(C)nc3)cc12 [Compound 523] | > 6.00
22 | COc1ncc(-c2ccc3c(c2)c(C(C)=O)nn3CC(=O)N2[C@@H]3C[C@@H]3C[C@H]2C(=O)Nc2ccc(F)c(Br)n2)cn1 [Compound 457, (1R,3S,5R)-2-(2-(3-Acetyl-5-(2-methoxypyrimidin-5-yl)-1H-indazol-1-yl)acetyl)-N-(6-bromo-5-fluoropyridin-2-yl)-2-azabicyclo[3.1.0]hexane-3-carboxamide] | > 6.00
23 | CC(=O)c1nn(CC(=O)N2C[C@H](F)C[C@H]2C(=O)Nc2cccc(Br)n2)c2ccc(-c3cnc(C)cn3)cc12 [Compound 465, (2S,4R)-1-(2-(3-Acetyl-5-(5-methylpyrazin-2-yl)-1H-indazol-1-yl)acetyl)-N-(6-bromopyridin-2-yl)-4-fluoropyrrolidine-2-carboxamide] | > 6.00
24 | CC(=O)c1nn(CC(=O)N2C[C@H](F)C[C@H]2C(=O)Nc2cccc(Cl)c2)c2ccc(-c3cnc(C)nc3)cc12 [Compound 508, (2S,4R)-1-(2-(3-Acetyl-5-(2-methylpyrimidin-5-yl)-1H-indazol-1-yl)acetyl)-N-(3-chlorophenyl)-4-fluoropyrrolidine-2-carboxamide] | > 6.00
25 | CC(=O)c1nn(CC(=O)N2C[C@H](F)C[C@H]2C(=O)Nc2cncc(Br)n2)c2ccc(-c3cnc(C(C)C)nc3)cc12 [Compound 389, (2S,4R)-1-(2-(3-Acetyl-5-(2-isopropylpyrimidin-5-yl)-1H-indazol-1-yl)acetyl)-N-(6-bromopyrazin-2-yl)-4-fluoropyrrolidine-2-carboxamide] | > 6.00
26 | COc1ncc(-c2ccc3c(c2)c(C(C)=O)nn3CC(=O)N2C[C@H](F)C[C@H]2C(=O)Nc2ccc(F)c(Br)n2)cn1 [Compound 450, (2S,4R)-1-(2-(3-Acetyl-5-(2-methoxypyrimidin-5-yl)-1H-indazol-1-yl)acetyl)-N-(6-bromo-5-fluoropyridin-2-yl)-4-fluoropyrrolidine-2-carboxamide] | > 6.00
